Assay results published in patent US11331289B2, “Antimicrobial composition” (priority 2017, dated 2022).

Assays:
[1] = system: S. pseudointermedius n°15 410; test: Time-killing curve, broth macrodilution; type: cell-based, Staphylococcus pseudintermedius
Procedure: (§1) The time-killing curve is used to determine the bactericidal or bacteriostatic activity of the antibimicrobial substances. Time-killing curves of Oxyclozanide against canine isolates of Staphylococcus aureus and Staphylococcus pseudintermedius were obtained using broth macrodilution method. After contact of different fixed amounts of Oxyclozanide with an inoculum, viable bacteria are counted immediately after contact and after 1, 3, 6 and 24 hours. Counting is performed on agar medium without antimicrobial substance.
(§2) Results are analyzed by plotting log10 CFU/ml versus time for each tested concentration. Bactericidal activity as defined by 99.9% killing of the inoculum is determined from time-killing curves by noting the presence of a ≥3 log10 decrease in CFU/ml.
(§3) Bacterial strains were sub-cultured twice from one cryobead on Mueller Hinton agar and incubated at 37° C. for 18-24 hours. From the second subcultures, isolated colonies were transferred into tubes containing 2 ml of Mueller Hinton Broth in order to obtain bacterial suspensions at 10^8 CFU/ml, knowing that an optical density of 0.1 at 620 nm corresponds to bacterial suspension at 10^8 CFU/ml. Then, bacterial suspensions were adjusted between 5 10^7 and 1 10^8 CFU/ml by dilution in Mueller Hinton broth.
(§4) For each concentration of Oxyclozanide to be tested, 50 μl of working solution concentrated 100× and […] of inoculum were added to 5 ml of Mueller-Hinton broth. Thus, the range of tested concentrations was from 0.125 to 8 μg/ml and the concentration of micro-organism was between 1 10^6 and 2 10^6 CFU/ml.
(§5) At the same time, a tube without Oxyclozanide was prepared: 50 μl of DMSO and 100 μl of inoculum were added to 5 ml of Mueller-Hinton broth and used as growth control. Tubes were incubated at 36° C. under agitation.
(§6) The numbers of viable bacteria were determined immediately after contact (TO) and after 1, 3, 6 and 24 h of incubation.
(§7) At each time, samples of each tube were taken and dilutions were performed in Mueller-Hinton broth. Then, dilutions were spread on Mueller Hinton agar with spiral plater. After 18 h of incubation at 36° C., counting of colonies was performed with automatic colony counter which determine the concentrations of viable bacteria. The technique employed made it possible to quantify bacterial concentrations as low as 20 CFU/ml.
(§8) Time-killing curves were plotted for each concentration of Oxyclozanide using Microsoft Excel software. The number or surviving bacteria was expressed as log10 CFU/ml. The time-killing curves of each strain represent the decrease in the viable bacteria count as a function of time for the Oxyclozanide concentrations concerned.
(§9) Bactericidal activity as defined by 99.9% killing of the inoculum is determined from time-killing curves by noting the presence of a ≥3 log10 decrease in CFU/ml.

[2] = system: S. pseudointermedius n°15 401; test: Time-killing curve, broth macrodilution; type: cell-based, Staphylococcus pseudintermedius
Procedure: as §1, §2, §3, §4, §5, §6, §7, §8, §9

O=C(Nc1cc(Cl)cc(Cl)c1O)c1c(O)c(Cl)cc(Cl)c1Cl [Oxyclozanide]
Bacteria reducing rate ([1]; 0.125 μg/ml (MIC), 1 h): 0.2 Δ log10 CFU/ml
Bacteria reducing rate ([1]; 0.125 μg/ml (MIC), 3 h): 1.1 Δ log10 CFU/ml
Bacteria reducing rate ([1]; 0.125 μg/ml (MIC), 6 h): 2.3 Δ log10 CFU/ml
Bacteria reducing rate ([1]; 0.125 μg/ml (MIC), 24 h): 2.9 Δ log10 CFU/ml
Bacteria reducing rate ([1]; 0.25 μg/ml (2 MIC), 1 h): 0.1 Δ log10 CFU/ml
Bacteria reducing rate ([1]; 0.25 μg/ml (2 MIC), 3 h): 1.1 Δ log10 CFU/ml
Bacteria reducing rate ([1]; 0.25 μg/ml (2 MIC), 6 h): 2.3 Δ log10 CFU/ml
Bacteria reducing rate ([1]; 0.25 μg/ml (2 MIC), 24 h): 1.1 Δ log10 CFU/ml
Bacteria reducing rate ([1]; 0.5 μg/ml (4 MIC), 1 h): 0.1 Δ log10 CFU/ml
Bacteria reducing rate ([1]; 0.5 μg/ml (4 MIC), 3 h): 1.1 Δ log10 CFU/ml
Bacteria reducing rate ([1]; 0.5 μg/ml (4 MIC), 6 h): 2.1 Δ log10 CFU/ml
Bacteria reducing rate ([1]; 0.5 μg/ml (4 MIC), 24 h): 1.1 Δ log10 CFU/ml
Bacteria reducing rate ([1]; 1 μg/ml (8 MIC), 1 h): 0.1 Δ log10 CFU/ml
Bacteria reducing rate ([1]; 1 μg/ml (8 MIC), 3 h): 0.1 Δ log10 CFU/ml
Bacteria reducing rate ([1]; 1 μg/ml (8 MIC), 6 h): 0.1 Δ log10 CFU/ml
Bacteria reducing rate ([1]; 1 μg/ml (8 MIC), 24 h): 0.4 Δ log10 CFU/ml
Viable bacteria count ([1]; 1 μg/ml (8 MIC), 24 h): 6.7 Log10 CFU/ml
Bacteria reducing rate ([1]; 2 μg/ml (16 MIC), 1 h): 0.0 Δ log10 CFU/ml
Bacteria reducing rate ([1]; 2 μg/ml (16 MIC), 3 h): −0.1 Δ log10 CFU/ml
Bacteria reducing rate ([1]; 2 μg/ml (16 MIC), 6 h): −0.9 Δ log10 CFU/ml
Bacteria reducing rate ([1]; 2 μg/ml (16 MIC), 24 h): −1.7 Δ log10 CFU/ml
Viable bacteria count ([1]; 2 μg/ml (16 MIC), 24 h): 4.6 Log10 CFU/ml
Bacteria reducing rate ([1]; 4 μg/ml (32 MIC), 1 h): −0.2 Δ log10 CFU/ml
Bacteria reducing rate ([1]; 4 μg/ml (32 MIC), 3 h): −0.1 Δ log10 CFU/ml
Bacteria reducing rate ([1]; 4 μg/ml (32 MIC), 6 h): −1.2 Δ log10 CFU/ml
Bacteria reducing rate ([1]; 4 μg/ml (32 MIC), 24 h): −3.9 Δ log10 CFU/ml
Viable bacteria count ([1]; 4 μg/ml (32 MIC), 24 h): 2.4 Log10 CFU/ml
Bacteria reducing rate ([1]; 8 μg/ml (64 MIC), 1 h): −0.2 Δ log10 CFU/ml
Bacteria reducing rate ([1]; 8 μg/ml (64 MIC), 3 h): −1.6 Δ log10 CFU/ml
Viable bacteria count ([1]; 8 μg/ml (64 MIC), 3 h): 4.7 Log10 CFU/ml
Bacteria reducing rate ([1]; 8 μg/ml (64 MIC), 6 h): −3.7 Δ log10 CFU/ml
Viable bacteria count ([1]; 8 μg/ml (64 MIC), 6 h): 2.6 Log10 CFU/ml
Bacteria reducing rate ([1]; 8 μg/ml (64 MIC), 24 h): −5.0 Δ log10 CFU/ml
Viable bacteria count ([2]; 0.125 μg/ml (MIC), 0 h): 5.9 Log10 CFU/ml
Bacteria reducing rate ([2]; 0.125 μg/ml (MIC), 1 h): 0.3 Δ log10 CFU/ml
Bacteria reducing rate ([2]; 0.125 μg/ml (MIC), 3 h): 1.2 Δ log10 CFU/ml
Bacteria reducing rate ([2]; 0.125 μg/ml (MIC), 6 h): 2.2 Δ log10 CFU/ml
Bacteria reducing rate ([2]; 0.125 μg/ml (MIC), 24 h): 2.8 Δ log10 CFU/ml
Viable bacteria count ([2]; 0.125 μg/ml (MIC), 24 h): 8.7 Log10 CFU/ml
Viable bacteria count ([2]; 0.25 μg/ml (2 MIC), 0 h): 6.0 Log10 CFU/ml
Bacteria reducing rate ([2]; 0.25 μg/ml (2 MIC), 1 h): 0.1 Δ log10 CFU/ml
Bacteria reducing rate ([2]; 0.25 μg/ml (2 MIC), 3 h): 0.8 Δ log10 CFU/ml
Viable bacteria count ([2]; 0.25 μg/ml (2 MIC), 3 h): 6.8 Log10 CFU/ml
Bacteria reducing rate ([2]; 0.25 μg/ml (2 MIC), 6 h): 2.2 Δ log10 CFU/ml
Bacteria reducing rate ([2]; 0.25 μg/ml (2 MIC), 24 h): 1.3 Δ log10 CFU/ml
Viable bacteria count ([2]; 0.5 μg/ml (4 MIC), 0 h): 6.0 Log10 CFU/ml
Bacteria reducing rate ([2]; 0.5 μg/ml (4 MIC), 1 h): 0.1 Δ log10 CFU/ml
Bacteria reducing rate ([2]; 0.5 μg/ml (4 MIC), 3 h): 0.4 Δ log10 CFU/ml
Bacteria reducing rate ([2]; 0.5 μg/ml (4 MIC), 6 h): 1.6 Δ log10 CFU/ml
Bacteria reducing rate ([2]; 0.5 μg/ml (4 MIC), 24 h): 1.4 Δ log10 CFU/ml
Viable bacteria count ([2]; 1 μg/ml (8 MIC), 0 h): 6.0 Log10 CFU/ml
Bacteria reducing rate ([2]; 1 μg/ml (8 MIC), 1 h): 0.1 Δ log10 CFU/ml
Bacteria reducing rate ([2]; 1 μg/ml (8 MIC), 3 h): 0.0 Δ log10 CFU/ml
Viable bacteria count ([2]; 1 μg/ml (8 MIC), 3 h): 6.0 Log10 CFU/ml
Bacteria reducing rate ([2]; 1 μg/ml (8 MIC), 6 h): 0.2 Δ log10 CFU/ml
Bacteria reducing rate ([2]; 1 μg/ml (8 MIC), 24 h): 0.7 Δ log10 CFU/ml
Viable bacteria count ([2]; 1 μg/ml (8 MIC), 24 h): 6.7 Log10 CFU/ml
Viable bacteria count ([2]; 2 μg/ml (16 MIC), 0 h): 6.0 Log10 CFU/ml
Bacteria reducing rate ([2]; 2 μg/ml (16 MIC), 1 h): −0.1 Δ log10 CFU/ml
Viable bacteria count ([2]; 2 μg/ml (16 MIC), 1 h): 5.9 Log10 CFU/ml
Bacteria reducing rate ([2]; 2 μg/ml (16 MIC), 3 h): −0.1 Δ log10 CFU/ml
Viable bacteria count ([2]; 2 μg/ml (16 MIC), 3 h): 5.9 Log10 CFU/ml
Bacteria reducing rate ([2]; 2 μg/ml (16 MIC), 6 h): 0.3 Δ log10 CFU/ml
Bacteria reducing rate ([2]; 2 μg/ml (16 MIC), 24 h): −0.1 Δ log10 CFU/ml
Viable bacteria count ([2]; 2 μg/ml (16 MIC), 24 h): 5.9 Log10 CFU/ml
Viable bacteria count ([2]; 4 μg/ml (32 MIC), 0 h): 5.9 Log10 CFU/ml
Bacteria reducing rate ([2]; 4 μg/ml (32 MIC), 1 h): 0.1 Δ log10 CFU/ml
Viable bacteria count ([2]; 4 μg/ml (32 MIC), 1 h): 6.0 Log10 CFU/ml
Bacteria reducing rate ([2]; 4 μg/ml (32 MIC), 3 h): 0.0 Δ log10 CFU/ml
Viable bacteria count ([2]; 4 μg/ml (32 MIC), 3 h): 5.9 Log10 CFU/ml
Bacteria reducing rate ([2]; 4 μg/ml (32 MIC), 6 h): −0.7 Δ log10 CFU/ml
Bacteria reducing rate ([2]; 4 μg/ml (32 MIC), 24 h): −3.4 Δ log10 CFU/ml
Viable bacteria count ([2]; 4 μg/ml (32 MIC), 24 h): 2.5 Log10 CFU/ml
Viable bacteria count ([2]; 8 μg/ml (64 MIC), 0 h): 6.0 Log10 CFU/ml
Bacteria reducing rate ([2]; 8 μg/ml (64 MIC), 1 h): −0.4 Δ log10 CFU/ml
Viable bacteria count ([2]; 8 μg/ml (64 MIC), 1 h): 5.6 Log10 CFU/ml
Bacteria reducing rate ([2]; 8 μg/ml (64 MIC), 3 h): −2.7 Δ log10 CFU/ml
Viable bacteria count ([2]; 8 μg/ml (64 MIC), 3 h): 3.3 Log10 CFU/ml
Bacteria reducing rate ([2]; 8 μg/ml (64 MIC), 6 h): −4.4 Δ log10 CFU/ml
Bacteria reducing rate ([2]; 8 μg/ml (64 MIC), 24 h): −4.7 Δ log10 CFU/ml
